These results are taken from publication PMC9267992, “Synthesis, Self-Assembly, and Cell Responses of Aromatic IKVAV Peptide Amphiphiles” (Molecules, 2022).

Experiment in data set [1]: not given
This is another data set of the same source.

Experiment in data set [2]: not given
This is another data set of the same source.

Data set [3] is described as follows: Hydrogelation / self-assembly under physiological conditions. The format is physicochemical. The following applies: for hydrogel formation: 1 wt.% (ca. 15 mM), pH 7.4; for Tgel-sol: hydrogel. The text has this: (§1) For biomedical applications, the self-assembly properties of Ben-IKVAV and PFB-IKVAV were investigated under physiological conditions. […] The corresponding microscopic morphologies were examined by transmission electron microscopy (TEM). […] The nanofibers are intertwined to form fiber bundles with a width of about 17 ± 1 nm. In contrast, PFB-IKVAV produces short nanofibers (diameter around 10 ± 1 nm). These fibrous nanostructures are distributed in water and entangled within a highly organized peptide-amphiphile nanofibers network (i.e., Ben-IKVAV and PFB-IKVAV), allowing for the formation of stable hydrogels. Moreover, the Tgel-sol of Ben-IKVAV and PFB-IKVAV were 65 and 55 °C, respectively. […] Furthermore, the self-assembly of Ben-IKVAV and PFB-IKVAV are viscoelastic gels, because the values of the G′ are higher than those of the loss modulus (G″) in both gels.

A short description of data set [4]: Negatively stained TEM of the hydrogels. The format is physicochemical. As to conditions: 1 wt.%, pH 7.4.
From the text: as §1
Figure 2 Optical (insets) and negatively stained TEM images of (A) Ben-IKVAV and (B) PFB-IKVAV at a concentration of 1 wt.% under pH 7.4. (Scale bar: 100 nm).

Data set [5] is described as follows: Oscillatory rheology of the hydrogels. The format is physicochemical. As to conditions: 1 wt.%, pH 7.4, oscillatory rheology, ω = 0.1–100 rad·s^−1.
From the text: as §1
Figure 3 Frequency-dependent (ω = 0.1–100 rad·s^−1) rheological measurement of Ben-IKVAV (circle) and PFB-IKVAV (square) at a concentration of 1 wt.% under pH 7.4 (solid for G′ and open for G′′).

Data set [6] in a line: Thioflavin T (ThT) fluorescence assay for fibrillar peptide structures. The format is physicochemical. The following applies: ratio of ThT emission intensities (I0: without adding hydrogelators), emission at 484 nm. The text has this:
(§2) Since Ben-IKVAV and PFB-IKVAV could self-assemble to form the network of nanofibers and afford the hydrogels, we further studied the driving force for the intermolecular interactions of the hydrogelators using spectroscopic characterization. […] The UV-vis absorption and circular dichroism (CD) spectra of Ben-IKVAV and PFB-IKVAV in water and methanol are presented in Figure 4. The absorption peaks of Ben-IKVAV are at 262 nm and 254 nm in water and methanol, respectively, indicating the redshift feature caused by the aggregation formation in an aqueous solution. […] CD spectra were recorded to understand the structural properties and molecular arrangement of Ben-IKVAV and PFB-IKVAV (Figure 4C,D). At low concentrations of Ben-IKVAV and PFB-IKVAV (50 and 500 μM) in water, no CD signals were detected in the wavelength region 190–350 nm. […] In addition, Fourier-transform infrared spectroscopy (FT-IR) was employed to verify the hydrogen interactions between molecules in the self-assembled state. […] Since thioflavin T (ThT) is a well-known fluorescent dye utilized to identify the presence of amyloid fibrils, we used the ThT fluorescence assay to further confirm the fibrillar peptide structures present in Ben-IKVAV and PFB-IKVAV. It is known that when ThT binds to β-amyloid fibrils, a remarkable enhancement in fluorescence intensity can be detected at 484 nm. […]

Data set [7] is described as follows: Concentration-dependent circular dichroism in water. The format is physicochemical. As to conditions: CD: no signal at 50 and 500 μM, Cotton effect at 1000 μM.
From the text: as §2
On the technique in general: CD spectra are sensitive to the conformation of chiral molecules.

Data set [8] has as its system hMSCs. The experiment in a line: MTT cell viability test. The format is cell-based, human. As to conditions: for cell viability: 500 μM, 48 h, ODsample/ODcontrol; for IC50: 10–500 μM, 24 and 48 h, read-out: half-inhibitory concentration (IC50). How it is done:
To evaluate the potential biological applications of Ben-IKVAV and PFB-IKVAV, we performed a biocompatibility test of these hydrogelators against hMSCs through MTT [3-(4,5-dimethylthiazol-2-yl)-2,5-diphenyltetrazolium bromide] assay, and the results are presented in Figure 6. The concentrations of Ben-IKVAV and PFB-IKVAV were selected in the range of 10–500 μM, and the cell viability measurements were processed at 24 and 48 h after cell seeding.
The biocompatibilities of Ben-IKVAV and PFB-IKVAV were measured by the MTT cell viability test. The hMSCs were seeded in 24-well plates (density: 50,000 cells per well) with Dulbecco’s modified Eagle’s medium (DMEM, 0.5 mL) containing 10% […] and 1% penicillin/streptomycin solution and then incubated for 24 h. Compounds of Ben-IKVAV and PFB-IKVAV at different concentrations (10, 50, 100, 200, and 500 µM) were added when cells were plated. After 24 and 48 h, the medium was replaced with fresh medium supplemented with MTT reagent (4 mg mL^–1, 0.5 mL per well). After another 4 h, the medium containing MTT was removed, and DMSO (0.5 mL per well) was added to dissolve the formazan crystals. Each of the 24 wells was transferred to a 96-well plate. The optical densities (ODs) of the resulting solutions were measured at 595 nm using an absorbance microplate reader (Infinite F50, TECAN, Männedorf, Switzerland). Cells that had not been subjected to treatment with the compounds were used as the control. The cell viability percentage (%) was calculated from the expression ODsample/ODcontrol.

Data set [9] has as its system hMSCs. In words: Neural differentiation of hMSCs in neural induction medium (cell morphology, neurite outgrowth). The format is cell-based, human. The following applies: 1000 μM in NIM; for differentiation of hMSCs into neuron-like cells: cultured 0, 2 and 7 days; for cell morphology and axon extension length (average neurite outgrowth length) versus NIM control: days 2 and 7, n = 50. How it is done:
Since Ben-IKVAV and PFB-IKVAV are biocompatible, we then diluted 1 wt.% of Ben-IKVAV and PFB-IKVAV hydrogels with basal medium and neural induction medium (NIM) to 1000 μM, respectively, and cultured them with hMSCs for 0, 2, and 7 days (Figure S2 and Figure 7). […] The fibrous structures of Ben-IKVAV or PFB-IKVAV scattered in the culture medium (NIM) are combined with cell surface receptors to promote neural differentiation. To understand the effect of neural differentiation of hMSCs, the average neurite outgrowth lengths on days 2 and 7 were measured in the control and experimental groups (i.e., Ben-IKVAV in NIM and PFB-IKVAV in NIM).
The hMSCs were grown in 24-well plates (density: 2.4 × 10^5 cells per well) in NIM supplemented with 1% penicillin/streptomycin, 10^−7 M dexamethasone, 50 μg/mL L-Ascorbic acid-2 phosphate, 50 μM indomethacin, 10 μg/mL insulin, and 0.45 mM 3-isobutyl-1-methyl-xanthine. The cells cultured in a basal medium were used as a negative control.

Data set [10] relates to hMSCs. In words: RT-qPCR analysis of neuronal-specific markers (Nestin, β-tubulin, SNCA, MAP2). The format is cell-based, human. The following applies: 1000 µM in NIM. How it is done:
To investigate whether IKVAV derivatives can effectively promote the differentiation of stem cells into neural cells, we diluted 1 wt.% of Ben-IKVAV and PFB-IKVAV hydrogels with NIM to 1000 µM, respectively, and cultured hMSCs for 0, 2, and 7 days. The mRNA was collected from NIM, NIM in the presence of Ben-IKVAV, and NIM in the presence of PFB-IKVAV and subjected to real-time quantitative polymerase chain reaction (RT-qPCR) analysis. The expression of neuronal-specific markers, Nestin, β-tubulin, SNCA, and MAP2 are analyzed in this work.
Total RNA was isolated from the control and induced (Neurogenic) hMSCs and quantified with a spectrophotometer (NanoPhotometer™ Pearl Design Edition, Westlake Village, CA, USA). Complementary DNA (cDNA) was synthesized from the total purified RNA (1 μg) using a MMLV High-Performance Reverse Transcriptase kit with a 10 μM OligodT primer at 37 °C for 1 h. […] The RT-qPCR reaction was carried out with initial denaturation at 95 °C for 10 min, followed by 40 cycles of PCR at 95 °C for 15 s, and 60 °C for 60 s.
In general terms: Quantitative PCR measures a nucleic acid by following its amplification.

The subject of a further data set is MAP2 in hMSCs. In words: Immunofluorescent staining for neuronal-specific marker MAP2. The format is cell-based, human. The following applies: neural induction medium in the presence of the peptide, day 7. The source says:
After neuronal inductions of hMSCs, immunofluorescent staining for neuronal-specific markers of β-tubulin and MAP2 was achieved. Figure 10 presents immunostaining for β-tubulin (green) with DAPI (blue) co-staining in hMSCs cultured with NIM (control), NIM in the presence of Ben-IKVAV, and NIM in the presence of PFB-IKVAV for days 1, 2, and 7. It can be seen that there is no β-tubulin stained on day 1. […] On the 7th day of culture, a more evident increase of β-tubulin was observed. […] It is speculated that the nuclear entry may be related to the initiation of the regulation of the gene level in the nucleus to make the differentiation more complete. […] After 7 days of differentiation, the cells gradually tended to mature nerve cells. Among these materials, PFB-IKVAV is the best one for helping cell differentiation.
After neuronal inductions of hMSCs, immunostaining was performed for neuronal-specific markers. Cells were fixed with 4% formaldehyde for 15 min and permeabilized with PBST buffer (0.1% Triton X-100 supplemented with BSA). After permeabilization, cells were blocked with Blocking buffer (PBST buffer + 5% serum) for 30 min and then incubated with primary antibodies β-tubulin (1:100) and MAP2 (1:200) at 4 °C overnight. […] Finally, cells were observed under a fluorescence microscope.

Experiment in data set [11]: not given
This is another data set of the same source.

phenyl-capped Ile-Lys-Val-Ala-Val gave an absorption peak in water of 262 nm. The same substance registered an absorption peak in methanol in [1] of 254 nm. The substance further returned an FT-IR absorption peak (hydrogen bonding) in [2] of 1630 cm⁻¹.

With “perfluorophenyl-capped Ile-Lys-Val-Ala-Val [PFB-IKVAV, IKVAV N-terminally coupled with 2-(perfluorophenyl)acetic acid; hydrogelator]”, in data set [3], the hydrogel formation result is listed as “form white translucent hydrogels” and the Tgel-sol is 55 °C. Also, the nanofiber diameter result in data set [4] was “around 10 ± 1 nm”. In addition, the “storage modulus (G′)” value in [5] was determined as 2.4 kPa. Moreover, the “ThT fluorescence enhancement ratio” value in data set [6] was found to be 210. The “concentration at which the peptide self-assembles into high-order supramolecular structures” value in data set [7] is reported as “higher than 1000 μM”. For the same substance, in the data set on hMSCs [8], the cell viability result is reported as “over 75%” and the IC50 was > 500 µM. In addition, in the data set with hMSCs [9], the “differentiation of hMSCs into neuron-like cells” value is on record as “could successfully differentiate hMSCs into neuron-like cells”; the “cell morphology and axon extension length (average neurite outgrowth length) versus NIM control” value is “no significant difference”. Besides, the “cell differentiation ability (comparison of the two peptides)” value with hMSCs [10] was “better cell differentiation ability than Ben-IKVAV”. Also, the “immunofluorescent staining for MAP2 relative to neural induction medium (control)” value in the data set with MAP2 in hMSCs came out at 4.6 times.

For “perfluorophenyl-capped Ile-Lys-Val-Ala-Val”, the new absorption band in water in data set [11] worked out at 285 nm. For the same substance, the FT-IR absorption peak (hydrogen bonding) in data set [2] was 1630 cm⁻¹.

Take “phenyl-capped Ile-Lys-Val-Ala-Val [Ben-IKVAV, phenyl-capped pentapeptide; IKVAV N-terminally coupled with 2-phenylacetic acid; hydrogelator]”: in data set [3], the hydrogel formation result is on record as “form white translucent hydrogels” and the Tgel-sol was 65 °C. For the same substance, in data set [4], the nanofiber diameter turned out to be 4 ± 2 nm and the “width of fiber bundles” value is “about 17 ± 1 nm”. Further, in [5], the “storage modulus (G′)” value is on record as 32.0 kPa. In addition, the “ThT fluorescence enhancement ratio” value in data set [6] was determined as 140. Further, the “concentration at which the peptide self-assembles into high-order supramolecular structures” value in data set [7] is on record as “higher than 1000 μM”. Further, in the data set on hMSCs [8], the cell viability entry was “over 75%” and the IC50 was > 500 µM. For the same substance, in the data set on hMSCs [9], the “differentiation of hMSCs into neuron-like cells” value is “could successfully differentiate hMSCs into neuron-like cells”; the “cell morphology and axon extension length (average neurite outgrowth length) versus NIM control” value was “no significant difference”.
